Test results taken from paper PMC6273036, “N-Alkoxyphenylhydroxynaphthalenecarboxamides and Their Antimycobacterial Activity” (Molecules, 2016).
In brackets after ≈: the same amount, converted by molar mass. Where two headings read alike, the source gives them in different places.

What was measured:
[1] = tested on: human monocytic leukemia THP-1 cells; assay: In vitro antiproliferative assay (WST-1); settings: THP-1, 24 h, read-out: IC50 (antiproliferative activity)
Description: Human monocytic leukemia THP-1 cells were used for in vitro antiproliferative assay. Cells were obtained from the European Collection of Cell Cultures (ECACC, Salisbury, UK) and routinely cultured in RPMI 1640 medium supplemented with 10% fetal bovine serum, 2% L-glutamine, 1% penicillin and streptomycin at 37 °C with 5% CO2. Cells were passaged at approximately one-week intervals. Antiproliferative activity of the compounds was determined using a Water Soluble Tetrazolium Salts-1 (WST-1, 2-(4-iodophenyl)-3-(4-nitrophenyl)-5-(2,4-disulfophenyl)-2H-tetrazolium) assay kit (Roche Diagnostics, Mannheim, Germany) according to the manufacturer’s instructions. The tested compounds were dissolved in DMSO and added in five increasing concentrations (0.37, 1.1, 3.3, 10 and 30 μM) to the cell suspension in the culture RPMI 1640 medium. The maximum concentration of DMSO in the assays never exceeded 0.1%. Subsequently, the cells were incubated for 24 h at 37 °C with 5% CO2. For WST-1 assays, cells were seeded into 96-well plates (5 × 10^4 cells/well in 100 μL culture medium) in triplicate in serum-free RPMI 1640 medium, and measurements were taken 24 h after the treatment with the compounds. The median inhibition concentration values, IC50, were deduced through the production of a dose-response curve. All data were evaluated using GraphPad Prism 5.00 software (GraphPad Software, San Diego, CA, USA).

[2] = tested on: M. smegmatis ATCC 700084; assay: In vitro antimycobacterial evaluation (broth dilution micro-method, MIC) against M. smegmatis; type: cell-based; settings: Mycolicibacterium smegmatis, ATCC700084, 72 h; Mycobacterium smegmatis ATCC 700084; MIC = IC90; 3 days incubation, visual
[3] = tested on: Mycobacterium tuberculosis H37Ra ATCC 25177; assay: In vitro antimycobacterial evaluation (alamarBlue, MIC) against M. tuberculosis; type: cell-based; settings: 168 h, M. tuberculosis H37Ra ATCC 25177, MIC = 90% or greater (IC90) reduction of growth, 7 days
Description: The evaluation of the in vitro antimycobacterial activity of the compounds was performed against Mycobacterium tuberculosis H37Ra ATCC 25177 (MT), M. kansasii DSM 44162 (MK) and M. smegmatis ATCC 700084 (MS), see Table 1. To lower risk and make manipulation in the laboratory easier, surrogate model pathogens for M. tuberculosis can be used in laboratory studies. Avirulent M. tuberculosis strain H37Ra is very closely related to and has similar pathology as human-infecting M. tuberculosis strains, making it a good model for study especially because of the lower risk for laboratory workers. M. kansasii, the most virulent of the NTM, causes nontuberculous mycobacterial lung infections, which are now very common, and can be indistinguishable from tuberculosis. M. smegmatis is an ideal representative of a fast-growing nonpathogenic microorganism, particularly useful in studying basic cellular processes of special relevance to pathogenic mycobacteria. Therefore additionally M. kansasii and M. smegmatis were chosen as model species for screening of prospective antimycobacterial drugs to control mycobacterial diseases. The potency of the compounds was expressed as the minimum inhibitory concentration (MIC) that is defined for mycobacteria as 90% or greater (IC90) reduction of growth in comparison with the control.
Mycobacterium tuberculosis H37Ra ATCC 25177 was grown in Middlebrook broth (MB), supplemented with Oleic-Albumin-Dextrose-Catalase (OADC) supplement (Becton, Dickinson & Comp., Franklin Lakes, NJ, USA) and mycobactin J (2 μg/mL). At log phase growth, a culture sample (10 mL) was centrifuged at 15,000 rpm/20 min using a bench top centrifuge (Model CR 4-12, Jouan Inc., Winchester, VA, USA). Following the removal of the supernatant, the pellet was washed in fresh Middlebrook 7H9GC broth and re-suspended in fresh, ODAC-supplemented MB (10 mL). The turbidity was adjusted to match McFarland standard No. 1 (3 × 10^8 cfu) with MB broth. A further 1:20 dilution of the culture was then performed in MB broth. The antimicrobial susceptibility of M. tuberculosis was investigated in a 96-well plate format. In these experiments, sterile deionised water (300 µL) was added to all outer-perimeter wells of the plates to minimize evaporation of the medium in the test wells during incubation. Each evaluated compound (100 µL) was incubated with M. tuberculosis (100 µL). Dilutions of each compound were prepared in duplicate. For all synthesized compounds, final concentrations ranged from 1000 μg/mL to 8 μg/mL. All compounds were dissolved in DMSO, and subsequent dilutions were made in supplemented MB. The plates were sealed with parafilm and incubated at 37 °C for 7 days. Following incubation, a 10% addition of alamarBlue (AbD Serotec, Kidlington, UK) was mixed into each well, and readings at 570 nm and 600 nm were taken, initially for background subtraction and subsequently after 24 h re-incubation. The background subtraction is necessary for strongly coloured compounds, where the colour may interfere with the interpretation of any colour change. For non-interfering compounds, a blue colour in the well was interpreted as the absence of growth, and a pink colour was scored as growth.
The minimum inhibitory concentration (MIC) was defined as the lowest concentration of the compound at which no visible bacterial growth was observed, i.e., the MIC is the lowest concentration that prevented a visual colour change from blue to pink. MIC is defined for mycobacteria as 90% or greater (IC90) reduction of growth in comparison with the control. The MIC/IC90 value is routinely and widely used in bacterial assays and is a standard detection limit according to the Clinical and Laboratory Standards Institute (CLSI, www.clsi.org). Rifampicin and isoniazid (Sigma-Aldrich) were used as the standards as they are clinically used antimycobacterial drugs.

[4] = tested on: Mycobacterium tuberculosis H37Ra ATCC 25177; assay: MTT assay, viability of M. tuberculosis H37Ra; type: cell-based; settings: at the tested concentration equal to MICs; 7 days; positive result when viability less than 70%
Description: The MTT assay is a well-characterized method of assessing cell growth through measurement of respiration. For the purpose of this assay, a positive result was recorded when the MTT measured viability of M. tuberculosis H37Ra was less than 70% after exposure to the MIC of each test compound.
For the MTT (3-(4,5-dimethylthiazol-2-yl)-2,5-diphenyltetrazolium bromide) assay, the outer wells of a 96-well plate were filled with 200 µL of sterile water, and the inner wells were filled with 100 µL of the tested compound at the MIC to be examined. Compounds were prepared as previously stated and diluted in Middlebrook media to achieve the desired concentration. Mycobacterium tuberculosis H37Ra ATCC 25177 was suspended in ODAC supplemented Middlebrook broth at a MacFarland standard of 1.0 and then diluted 1:20, using Middlebrook broth as a diluent. The diluted mycobacteria (100 µL) were added to each well containing the compound to be tested. A negative growth control was composed of 100 µL of DMSO and 100 µL of the media, and the diluted mycobacteria in broth absent of inhibiting compounds were used as a positive growth control. All compounds and controls were prepared in triplicate. Plates were incubated at 37 °C for 7 days. After the incubation period, 10% well volume of MTT reagent was mixed into each well and incubated at 37 °C for 24 h. The reagent and media were then aspirated from the wells, to which 50 µL 99% isopropanol was then added, and the plates were read at 570 nm. The absorbance readings from the cells, grown in the presence of the tested compounds, were compared with uninhibited cell growth (using DMSO as the blank) to determine the relative percent viability. The percent viability was determined through the MTT assay. The percent viability is calculated through comparison of a measured value against that of the uninhibited control: %viability = OD570E/OD570P × 100, where OD570E is the reading from the compound-exposed cells, while OD570P is the reading from the uninhibited cells (positive control). Cytotoxic potential is determined by a percent viability of <70%.

[5] = tested on: Mycobacterium kansasii DSM 44162; assay: In vitro antimycobacterial evaluation (broth dilution micro-method, MIC) against M. kansasii; type: cell-based; settings: DSM44162, 168 h, M. kansasii DSM 44162, MIC = IC90, 7 days incubation, visual
[6] = tested on: human monocytic leukemia THP-1 cells; settings: assessed in this line formerly, read-out: IC50 (antiproliferative activity); cited from earlier work

| SMILES | IC50 [1] | MIC [2] | MIC [3] | viability of M. tuberculosis H37Ra (MTT) [4] | MIC [5] | IC50 [6] |
| --- | --- | --- | --- | --- | --- | --- |
| CCOc1ccccc1NC(=O)c1c(O)ccc2ccccc12 [Compound 3a, N-(2-Ethoxyphenyl)-2-hydroxynaphthalene-1-carboxamide] | > 30000 nM | 832 µM (≈ 256 µg/mL) | 26 µM (≈ 7.99 µg/mL) | 30.6% | 832 µM (≈ 256 µg/mL) | – |
| CCOc1ccc(NC(=O)c2c(O)ccc3ccccc23)cc1 [Compound 3c] | > 30000 nM | 832 µM (≈ 256 µg/mL) | 26 µM (≈ 7.99 µg/mL) | 9.96% | 104 µM (≈ 32 µg/mL) | – |
| CCCOc1ccc(NC(=O)c2c(O)ccc3ccccc23)cc1 [Compound 4c, 2-Hydroxy-N-(4-propoxyphenyl)naphthalene-1-carboxamide] | > 30000 nM | 398 µM (≈ 128 µg/mL) | 12 µM (≈ 3.86 µg/mL) | 5.90% | 99 µM (≈ 31.8 µg/mL) | – |
| CCCCOc1cccc(NC(=O)c2c(O)ccc3ccccc23)c1 [Compound 5b, N-(3-Butoxyphenyl)-2-hydroxynaphthalene-1-carboxamide] | > 30000 nM | 381 µM (≈ 128 µg/mL) | 23 µM (≈ 7.71 µg/mL) | 7.38% | 190 µM (≈ 63.7 µg/mL) | – |
| CC(C)Oc1ccc(NC(=O)c2c(O)ccc3ccccc23)cc1 [Compound 6c, 2-Hydroxy-N-[4-(prop-2-yloxy)phenyl]naphthalene-1-carboxamide] | > 30000 nM | 796 µM (≈ 256 µg/mL) | 25 µM (≈ 8.03 µg/mL) | 8.96% | 99 µM (≈ 31.8 µg/mL) | – |
| CCC(C)Oc1cccc(NC(=O)c2c(O)ccc3ccccc23)c1 (stereo not drawn) [Compound 7b, N-[3-(But-2-yloxy)phenyl]-2-hydroxynaphthalene-1-carboxamide] | > 30000 nM | 12 µM (≈ 4.02 µg/mL) | 23 µM (≈ 7.71 µg/mL) | 7.38% | 47 µM (≈ 15.8 µg/mL) | – |
| CCC(C)Oc1ccc(NC(=O)c2c(O)ccc3ccccc23)cc1 (stereo not drawn) [Compound 7c, N-[4-(But-2-yloxy)phenyl]-2-hydroxynaphthalene-1-carboxamide] | > 30000 nM | 12 µM (≈ 4.02 µg/mL) | 23 µM (≈ 7.71 µg/mL) | 8.86% | 95 µM (≈ 31.9 µg/mL) | – |
| CCCOc1cccc(NC(=O)c2ccc3ccccc3c2O)c1 [Compound 11b, 1-Hydroxy-N-(3-propoxyphenyl)naphthalene-2-carboxamide] | 1370 ± 720 nM | 199 µM (≈ 64 µg/mL) | 24 µM (≈ 7.71 µg/mL) | 15.13% | 49 µM (≈ 15.7 µg/mL) | – |
| CCCCOc1cccc(NC(=O)c2ccc3ccccc3c2O)c1 [Compound 12b, N-(3-Butoxyphenyl)-1-hydroxynaphthalene-2-carboxamide] | 1800 ± 320 nM | 190 µM (≈ 63.7 µg/mL) | 23 µM (≈ 7.71 µg/mL) | 9.96% | 47 µM (≈ 15.8 µg/mL) | – |
| CCC(C)Oc1cccc(NC(=O)c2ccc3ccccc3c2O)c1 (stereo not drawn) [Compound 14b, N-[3-(But-2-yloxy)phenyl]-1-hydroxynaphthalene-2-carboxamide] | 1170 ± 380 nM | 12 µM (≈ 4.02 µg/mL) | 23 µM (≈ 7.71 µg/mL) | 9.96% | 47 µM (≈ 15.8 µg/mL) | – |
| CC[C@@]1(O)C(=O)OCc2c1cc1n(c2=O)Cc2cc3ccccc3nc2-1 [camptothecin] | – | – | – | – | – | 160 ± 70 nM |
